In PMC10851555, “Safinamide, an inhibitor of monoamine oxidase, modulates the magnitude, gating, and hysteresis of sodium ion current” (BMC Pharmacology & Toxicology, 2024):
Where two headings read alike, the source gives them in different places.

What was measured:
Format in all cases: cell-based, rat
[1] = test system: voltage-gated sodium ion (NaV) channels in pituitary GH3 cells; assay: Whole-cell INa(T) decay during a 1-s, 20-Hz train of depolarizing pulses in GH3 cells; conditions: for effect on SAF-induced increase in decaying time constant of INa(T): 10 μM added in the presence of 10 μM SAF; for decaying time constant of INa(T) during train of depolarizing pulses: 10 μM alone, control 66 ± 5 ms, n = 7
Method: Shortly before experiments, GH3 was carefully suspended in normal Tyrode’s solution at room temperature (20–25 °C). A few drops of the suspension containing cell clumps were immediately added to a custom-built chamber on the stage of an inverted Diaphot-200 microscope (Nikon, Tokyo, Japan). Pipettes were pulled from Kimax-51 soft-glass capillaries (#34500-99; Kimble, Vineland, NJ) by using a Narishige PP-830 Vertical Puller (Tokyo, Japan), and their tips were fire-polished using a microforge (MF-83, Narishige). During the measurements, an electrode with a tip resistance of 2–4 MΩ, which was tightly inserted into a holder, was maneuvered using a WR-98 micromanipulator (Narishige). Patch-clamp experiments were performed in the voltage-clamp mode with either cell-attached or whole-cell configuration (rupturing of the membrane patch after GΩ formation) by using a RK-400 Patch-Clamp Amplifier (Bio-Logic, Claix, France) connected to a laptop. Shortly before GΩ formation, potential correction was performed for a liquid junction potential, which developed at the electrode’s tip because of the difference in the compositions of the internal and bath solutions.
SAF is efficacious as an add-on therapy following subthalamic nucleus deep brain stimulation in patients with Parkinson’s disease. Therefore, we investigated whether SAF could modify the inactivation of currents induced by a train of depolarizing stimuli. The test cells were maintained at −80 mV and subjected to repetitive depolarization to −10 mV (40 ms per pulse; rate of 20 Hz; duration of 1 s). Similar to the findings of relevant studies, during the control period (the absence of SAF), INa(T) inactivation was noticed to be induced by 1 s of repetitive depolarization stimuli (−80 to −10 mV) with a decaying time constant of 65 ± 4 ms (n = 7; Fig. 6A, 6B and 6C). […] In the presence of 3 and 10 μM SAF, the exponential time course of INa(T) induced by the same train of depolarizing pulses was longer at 107 ± 5 ms (n = 7, P < 0.05) and 124 ± 6 ms (n = 7, P < 0.05), respectively. Furthermore, as MGB and ranolazine have been reported to suppress the amplitude of INa effectively, we added ranolazine (Ran; 10 μM) and mirogabalin (MGB; 10 μM) separately in the presence of 10 μM SAF. […] The application of Ran (10 μM) or MGB (10 μM) alone decreased the decaying time constant of INa(T) during the same train of depolarizing pulses to 39 ± 4 ms (n = 7, P < 0.05) or 42 ± 4 ms (n = 7, P < 0.05), respectively, from a control value of 66 ± 5 ms (n = 7). Thus, in addition to increasing the magnitude of INa(T), SAF prominently affects the decaying of INa(T) subjected to a 1-s train of depolarizing pulses.
Fig. 6 Effect of SAF on INa(T) decay induced by a train of depolarizing pulses in GH3 cells. The train of pulses comprised twenty 40-ms pulses (voltage increased to −10 mV) with 10-ms intervals at −80 mV for a total duration of 1 s. (A) Current traces during the control period (a, blue) and during exposure to 10 μM SAF (b, red). The voltage-clamp protocol used is indicated atop the current traces. In panel A, the third graphs (blue and red) from the top are the expanded forms of the second graphs (brown dashed boxes). (B) The relative amplitude of INa(T) versus pulse train duration in the absence (blue open circles) and presence (red open squares) of 10 μM SAF (mean ± standard error of the mean; n = 7 for each point). The INa(T) amplitudes were normalized by dividing the current amplitudes at the end of each pulse-train stimulation by those obtained at the beginning of the pulse train stimulation. The gray continuous lines on which the data points are overlaid are reliably fitted with a single exponential.

[2] = test system: single NaV channels in GH3 cells; assay: Cell-attached single-channel NaV current recordings in GH3 cells; conditions: n = 7
Method: The composition of the external or bath solution [4-(2-hydroxyethyl)-1-piperazineethanesulfonic acid (HEPES)-buffered normal Tyrode’s solution] was as follows: 136.5 mM NaCl, 1.8 mM CaCl2, 5.4 mM KCl, 0.53 mM MgCl2, 5.5 mM glucose, and 5.5 mM HEPES–NaOH (pH 7.4). To measure K^+ currents (data not shown), we filled a patch pipette with an internal solution comprising 140 mM KCl, 1 mM MgCl2, 3 mM adenosine 5′-triphosphate disodium salt, 0.1 mM guanosine 5′-triphosphate disodium salt, 0.1 mM ethylene glycol tetraacetic acid, and 5 mM HEPES–KOH buffer (pH 7.2). To record the whole-cell INa, the K^+ in the internal solution was substituted with Cs^+, and the pH of the solution was adjusted to 7.2 by adding cesium hydroxide. In the single-channel experiments performed to record NaV currents, the pipette was filled with a Na^+-rich solution containing 136 mM NaCl, 0.53 mM MgCl2, 5.5 mM glucose, and 5.5 mM HEPES–NaOH (pH 7.2). The bath medium was a K^+-rich solution comprising 130 mM KCl, 10 mM NaCl, 3 mM MgCl2, 6 mM glucose, and 10 mM HEPES-KOH (pH 7.4). The solutions and culture media were generally filtered on the day of use by using sterile Acrodisc Syringe Filters containing a 0.2-μm Supor Membrane (Bio-Check; New Taipei City, Taiwan).
Single-channel NaV currents induced by depolarizing pulses ranging from −100 to −10 mV were measured and subsequently analyzed using pCLAMP 10.7. The opening events of the channels were generally evaluated through multi-Gaussian adjustments of the distribution of amplitude across channels. Functional independence between channels was determined by comparing the observed stationary probabilities with the values calculated based on the binomial law. For dwell-time analyses, only a single channel was used in the patch-clamp experiment.
To elucidate the mechanisms underlying the effects of SAF on the magnitude of INa, we investigated the actions of SAF and SAF plus MGB on single-channel NaV currents. This experiment was performed using the cell-attached configuration of the voltage-clamp test. Test cells were placed in K^+-rich solution, and the recording pipette was filled with Na^+-rich solution. SAF (10 μM) increased channel activity and decelerated current inactivation when the cells were exposed to depolarization stimuli ascending from –100 to –10 mV (rate of 0.1 Hz; Fig. 9A). Furthermore, the addition of MGB (10 μM) in the presence of 10 μM SAF reduced the probability of channel opening. […] Moreover, with the presence of 10 μM SAF, the mean open time of NaV channels was prolonged to […] (n = 7, P < 0.05) msec from a control value of 2.3 ± 0.3 msec (n = 7). […] Consistent with these findings, the mean open time of the NaV channel in the presence of 10 μM SAF (5.9 ± 1.1 ms; n = 7; P < 0.05) was longer than that in the control period (2.3 ± 0.3 ms, n = 7); the subsequent further addition of 10 μM MGB decreased the mean open time to 3.7 ± 0.7 ms (n = 7, P < 0.05) (Fig. 9B). […] MGB added during SAF exposure reversed the SAF-induced increase in NaV channel activity.

[3] = test system: voltage-gated sodium ion (NaV) channels in pituitary GH3 cells; assay: Whole-cell patch-clamp of INa induced by a 30-ms depolarizing pulse (−100 to −10 mV) in GH3 cells; conditions: for reversal of SAF-mediated increase in INa(T): 10 μM added during exposure to SAF (30 μM); for reversal of SAF-mediated increase in INa(T) / effect on magnitude of INa(T): n = 7; for effect on magnitude of INa(T): dopamine or serotonin alone
[4] = test system: voltage-gated sodium ion (NaV) channels in pituitary GH3 cells; assay: Window INa [INa(W)] induced by ascending ramp voltage (−100 to +40 mV over 200 ms) in GH3 cells; conditions: Ran 10 μM added in the presence of SAF 10 μM
From the text: The sigmoidal relationship between Vramp-induced INa(W) and the upsloping Vramp (nonlinear current–voltage relationship) was investigated and fitted with the Boltzmann function as follows: [drawing 2]
where V is the membrane potential in millivolts, Erev is the reversal potential of INa, G is the INa conductance in nanosiemens, I is the current, Vh is the voltage at which half-maximal activation or inactivation of the current occurs, q is the apparent gating charge, F is Faraday’s constant, R is the universal gas constant, and T is the absolute temperature.
The free energy ∆G0 for the gating of INa(W) was determined by assuming a two-state gating model [equilibrium between closed (resting) and open states] of the NaV channel. The ∆G0 for the activation of INa(W) at 0 mV could be calculated as follows: q × F × V1/2 [45, 46]. The standard errors in ∆G0 ( [drawing 3] ) could be calculated as follows: […]
In the present study, we investigated whether the addition of SAF to GH3 cells modulates the magnitude of INa(W) induced by ascending Vramp. Test cells were maintained at −80 mV and subjected to Vramp ascending from −100 to +40 mV over 200 ms (i.e., ramp speed of 0.7 mV/ms) to induce INa(W). […] The ∆area values of INa(W) in the absence and presence of SAF and SAF plus Ran were calculated (Fig. 7B).
Fig. 7 Stimulatory effects of SAF on window INa [INa(W)] induced by an ascending ramp voltage Vramp in GH3 cells. For the experiments, the test cells were maintained at −80 mV and subjected to Vramp ranging from −100 to +40 mV over 200 ms (ramp speed of 0.7 mV/ms). (A) INa(W) trace in the absence (a, blue) and presence (b, red) of 10 μM SAF. The inset indicates the Vramp protocol, and the downward deflection indicates inward-directed current. The continuous gray lines corresponding to the untreated or SAF-treated (10 μM) cells were fitted (least-squares minimization) with the Boltzmann equation. The values of […] and q (apparent gating charge) induced by ascending Vramp over 200 ms in the absence (blue) of SAF were, respectively, −34 mV and 2.1 e; the corresponding values in the presence (red) of 10 μM SAF were −38 mV and 2.8 e, respectively. (B) Summary graph illustrating the effects of SAF (3 and 10 μM) and SAF (10 μM) plus Ran (10 μM) on the Δarea of INa(W) in GH3 cells (mean ± standard error of the mean; n = 7 for each point). The value of Δarea was measured at a voltage ranging from −80 and +40 mV, which corresponded to INa(W) induced by the ascending Vramp. […] (C) Summary graph illustrating the effects of SAF (3 and 10 μM) and SAF plus Ran (10 μM) on ΔG0 (mean ± standard error of the mean; n = 7 for each point). The estimation of ΔG0 for the induction of instantaneous INa(W) is described in the Materials and Methods section.

[5] = 10 μM MGB added in the presence of 10 μM SAF

CCC1=C[C@@H]2[C@H](C1)C[C@]2(CN)CC(=O)O [MGB, mirogabalin]
effect on SAF-induced increase in decaying time constant of INa(T) [1]: effectively attenuated the SAF-induced increase in the decaying time constant
decaying time constant of INa(T) during train of depolarizing pulses [1]: 42 ± 4 ms
mean open time of the NaV channel [2, 5]: 3.7 ± 0.7 ms
open-state probability of the NaV channel [2, 5]: 0.041 ± 0.007
amplitude of the single-channel current ([2]; SAF plus MGB, control 2.01 ± 0.35 pA): 2.00 ± 0.44 pA

Cc1c(F)c(F)c(COC(=O)[C@@H]2[C@H](/C=C(\Cl)C(F)(F)F)C2(C)C)c(F)c1F (racemic) [Tef, tefluthrin]
effect on rapid inward current (INa) induced by short depolarizing pulse ([3]; 10 μM): stimulated

C/C=C/C1C(C(=O)OCc2c(F)c(F)c(COC)c(F)c2F)C1(C)C (stereo not drawn) [metofluthrin]
effect on rapid inward current (INa) induced by short depolarizing pulse ([3]; 10 μM): stimulated

NC1=N[C@H](O)[C@H]2[C@H]3O[C@]4(O)O[C@@H]([C@@H](O)[C@@]2(N1)[C@@H]4O)[C@]3(O)CO [TTX, tetrodotoxin]
amplitude of INa(L) [3]: 2 ± 1 pA
amplitude of INa(T) [3]: 18 ± 2 pA
effect on rapid inward current (INa) induced by short depolarizing pulse [3]: blocked

NCCc1ccc(O)c(O)c1 [dopamine]
reversal of SAF-mediated increase in INa(T) [3]: neither dopamine nor serotonin reversed the SAF-mediated increase in INa(T)
effect on magnitude of INa(T) [3]: neither dopamine nor serotonin altered the magnitude of INa(T)

NCCc1c[nH]c2ccc(O)cc12 [serotonin]
reversal of SAF-mediated increase in INa(T) [3]: neither dopamine nor serotonin reversed the SAF-mediated increase in INa(T)
effect on magnitude of INa(T) [3]: neither dopamine nor serotonin altered the magnitude of INa(T)

COc1ccccc1OCC(O)CN1CCN(CC(=O)Nc2c(C)cccc2C)CC1 (stereo not drawn) [Ran, ranolazine]
effect on SAF-induced increase in decaying time constant of INa(T) [1]: effectively attenuated the SAF-induced increase in the decaying time constant
decaying time constant of INa(T) during train of depolarizing pulses [1]: 39 ± 4 ms
effect on SAF-mediated increase in ∆G0 of INa(W) [4]: effectively attenuated the SAF-mediated increase in ∆G0
effect on SAF-mediated increase in ∆area of INa(W) [4]: reversed the SAF-mediated increase
